# Reference: patent US20120141461A1, “COMPOSITIONS AND METHODS FOR DIAGNOSING AND TREATING FIBROTIC DISORDERS” (THE REGENTS OF THE UNIVERSITY OF MICHIGAN, priority 2009, published 2012)
# B1: catalase: an enzyme which reduces H2O2 to H2O (protein, UniProt P04040 2-527, looked up)
# Catalase: ADSRDPASDQMQHWKEQRAAQKADVLTTGAGNPVGDKLNVITVGPRGPLLVQDVVFTDEMAHFDRERIPERVVHAKGAGAFGYFEVTHDITKYSKAKVFEHIGKKTPIAVRFSTVAGESGSADTVRDPRGFAVKFYTEDGNWDLVGNNTPIFFIRDPILFPSFIHSQKRNPQTHLKDPDMVWDFWSLRPESLHQVSFLFSDRGIPDGHRHMNGYGSHTFKLVNANGEAVYCKFHYKTDQGIKNLSVEDAARLSQEDPDYGIRDLFNAIATGKYPSWTFYIQVMTFNQAETFPFNPFDLTKVWPHKDYPLIPVGKLVLNRNPVNYFAEVEQIAFDPSNMPPGIEASPDKMLQGRLFAYPDTHRHRLGPNYLHIPVNCPYRARVANYQRDGPMCMQDNQGGAPNYYPNSFGAPEQQPSALEHSIQYSGEVRRFNTANDDNVTQVRAFYVNVLNEEQRKRLCENIAGHLKDAQIFIQKKAVKNFTEVHPDYGSHIQALLDKYNAEKPKNAIHTFVQSGSHLAAREKANL
# Columns and labels:
# [1] = tested on: C57BL/6 mice; assay: Murine model of bleomycin-induced lung injury/fibrosis; type: in vivo, mouse
# Method: RNA was extracted and expression of NOX4 mRNA analyzed by real-time PCR; (b) C57BL/6 mice were administered intra-tracheal (IT) bleomycin on day 0.
# C57BL/6J mice (6-8 weeks of age; Jackson Laboratories, Bar Harbor, Me.) were anesthetized with intraperitoneal injection of ketamine and xylazine. Intra-tracheal bleomycin (0.025 U) or FITC (4.67 mg/ml suspension in PBS) was administered to induce lung injury. The University of Michigan Committee on the Use and Care of Animals approved the animal protocols.
# (§1) For in vitro RNAi, cells were transfected with single duplexes targeting NOX4 or non-targeting control siRNA (100 nM) using Lipofectamine-2000 reagent. For in vivo RNAi studies, NOX4 siRNA or control nontargeting siRNA (Dharmacon Inc.) were administered at a dose of ˜50 μg per mouse by intratracheal injection with bleomycin, FITC, or saline, in a total volume of 50 μl using a 26-gauge needle.
# (§2) Cell lysates were prepared in RIPA buffer, subjected them to SDS-PAGE under reducing conditions and performed western immunoblotting as previously described (Horowitz et al. J Biol Chem 279, 1359-1367 (2004), herein incorporated by reference in its entirety).
# Acid-soluble collagen was measured in cell culture supernatants or whole lung homogenates using the Sircol assay as previously described (Vittal et al. Am J Pathol 166, 367-375 (2005), herein incorporated by reference in its entirety).
# Murine whole lungs were homogenized in PBS, then acidified (by adding an equal volume of 12 N HCl), hydrolyzed (by heating at 120° C. for 24 h), and processed samples for hydroxyline measurements as previously described 29. Lung histology and immunohistochemical staining Paraffin embedded tissue sections were processed for lung histology and immunohistochemical staining as previously described described (Vittal et al. Am J Pathol 166, 367-375 (2005), herein incorporated by reference in its entirety).
# [2] = tested on: human fetal lung mesenchymal cells (hFLMCs); assay: Myofibroblast differentiation markers in hFLMCs in 3D-collagen matrix, Western immunoblotting; type: cell-based; conditions: catalase 750 U/ml, TGF-β1 2 ng/ml x 16 h
# Method: (§3) Collagen gels were reconstituted by mixing 1 part of 3 mg/ml neutralized rat tail collagen type 1 and two parts of cell suspension in serum-free media. Cell suspensions were seeded at a density of 200,000 cells per ml into 24-well tissue culture plates and allowed the gels to polymerize at 37° C. for 1 h before adding 1 ml of media. Gels were incubated overnight prior to treatments, and gently detached the edge of the gels from the walls of the well using a sterile spatula. Gels were photographed and gel area was measured using ImageJ (NIH) software.
# as §1, §2
# [3] = tested on: human fetal lung mesenchymal cells (hFLMCs); assay: TGF-β1-induced collagen gel contractility of hFLMCs in 3D-collagen matrices; type: cell-based; conditions: catalase at 750 U/ml
# Method: as §3
# [4] = DPI 1.6 mg/kg daily intra-peritoneal on days 8 to 21, day 21
Molecule,"protection from fibrosis, acid-soluble collagen in whole lung ([1]; DPI 1.6 mg/kg daily intra-peritoneal on days 8 to 21, Sircol assay on day 21)","expression of NOX4 and α-SMA expressing myofibroblasts (IHC) [1, 4]","fibrosis by histopathology and Masson's trichrome staining for collagen [1, 4]",fibronectin synthesis induced by TGF-β1 [2],upregulation of α-smooth muscle actin (α-SMA) induced by TGF-β1 [2],TGF-β1-induced collagen gel contractility [3]
"c1ccc2c(c1)[I+]c1ccccc1-2 [DPI, diphenyleneiodonium chloride]",significant protection from fibrosis,reduced expression,reduced fibrosis,,,
B1,,,,inhibited,inhibited,inhibited
